Reference: patent US10336724B2, “D-amino acid oxidase inhibitors and therapeutic uses thereof” (SyneuRx International (Taiwan) Corp., priority 2017, dated 2019)

How the values were obtained:
[1] = target: hDAAO (human DAAO) (Homo sapiens (Human), UniProt P14920); assay: hDAAO (human DAAO) activity, D-serine substrate, Amplex Red fluorescence; format: biochemical
Experimental: The hDAAO (human DAAO) activity was measured by using D-serine as a substrate to produce H2O2. The produced H2O2 would be oxidized by peroxidase, and the produced free radicals would further react with Amplex Red reagent to emit fluorescence. The intensity of fluorescence at 590 nm would be measured to represent the activity of hDAAO. All compounds were dissolved in DMSO. Each compound was diluted with DMSO in 3-fold serial dilution to create a 9-point dose response curve. Each sample was added in triplicate, 1 μL/well, into 96-well black plates. Positive control wells were added with 1 μL of DMSO. Then 49 μL of assay buffer (100 mM Tris-HCl, pH 8.5) containing 1.2 ng/mL hDAAO, 900 nM FAD, 0.2 units/mL HRP, and 100 μM Amplex Red was added to each well of the plate using a multichannel pipette. Next, 50 μL of 100 mM D-Serine in assay buffer was added. The reaction plates were then incubated in the dark at room temperature. The fluorescence readout was detected at 0 and 20 minute by Molecular Device Gemini EM fluorescence reader using the following settings: excitation filter 530 nm, and emission filter 590 nm. The percentage of inhibition values for each well was calculated with the following equation: The percentage of inhibition=(fluorescencesample, 20 min−fluorescencesample, 0 min)/(fluorescenceDMSO, 20 min−fluorescenceDMSO, 0 min)×100%
(§1) The nonlinear curve fitting model in GraphPad Prism 5 was used to calculate IC50 value for each compound.

[2] = target: pkDAAO (porcine kidney DAAO) (Sus scrofa (Pig), UniProt P00371); assay: pkDAAO (porcine kidney DAAO) activity, D-Proline substrate, OPD OD450; format: biochemical
Chain of pkDAAO (porcine kidney DAAO) (P00371 whole entry): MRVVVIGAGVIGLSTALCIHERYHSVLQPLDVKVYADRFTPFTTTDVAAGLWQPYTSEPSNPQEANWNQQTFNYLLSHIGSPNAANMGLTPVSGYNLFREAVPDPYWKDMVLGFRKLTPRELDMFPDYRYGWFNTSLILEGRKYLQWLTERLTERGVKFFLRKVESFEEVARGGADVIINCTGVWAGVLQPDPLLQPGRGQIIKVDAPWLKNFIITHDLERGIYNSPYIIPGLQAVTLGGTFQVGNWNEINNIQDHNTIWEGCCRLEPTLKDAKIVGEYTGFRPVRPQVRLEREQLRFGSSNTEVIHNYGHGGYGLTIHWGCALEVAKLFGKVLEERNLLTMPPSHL
Experimental: The pkDAAO (porcine kidney DAAO) activity was measured by using D-Proine as a substrate to produce hydrogen peroxide (H2O2). The produced H2O2 would be oxidized by peroxidase, and the produced free radicals would further react with 1,2-Phenylenediamine (OPD) reagent. […] The OD450 would be measured to represent the activity of pkDAAO. All compounds were dissolved in DMSO. Each compound was diluted with DMSO in 3 or 4-fold serial dilution to create a 9-point dose response curve. Each sample was added in triplicate, 10 μL/well, into 96-well assay microplate. Positive control wells were added with 10 μL of DMSO. The diluted compounds were incubated with pkDAAO in dark for 10 minutes and then reacted with D-Proline. The final reaction mixture was composed of 0.01 U/mL pkDAAO, 0.03% OPD, 25 U/mL HRP and 40 mM D-Proline in PBS. The reaction plates were then incubated in the dark at room temperature. The OD450 absorbance readout was detected at 0 and 20 minute by Molecular Device Spectra Max Plus reader. The percentage of inhibition values for each well were calculated with the following equation: The percentage of inhibition=(OD450sample, 20 min−OD450sample, 0 min)/(OD450DMSO, 20 min−OD450DMSO, 0 min)×100%
as §1

Chain of hDAAO (human DAAO) (P14920 whole entry): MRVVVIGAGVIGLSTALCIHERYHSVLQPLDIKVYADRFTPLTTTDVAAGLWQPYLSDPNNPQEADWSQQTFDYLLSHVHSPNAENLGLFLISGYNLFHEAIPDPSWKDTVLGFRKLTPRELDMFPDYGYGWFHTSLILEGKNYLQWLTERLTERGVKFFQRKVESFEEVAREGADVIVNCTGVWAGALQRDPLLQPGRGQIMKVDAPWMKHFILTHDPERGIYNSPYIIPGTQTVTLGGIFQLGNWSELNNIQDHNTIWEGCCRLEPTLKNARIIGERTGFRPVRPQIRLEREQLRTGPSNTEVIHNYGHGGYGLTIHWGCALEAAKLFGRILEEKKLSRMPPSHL

| IC50 [1] [nM] | IC50 [2] [nM] | Compound |
| --- | --- | --- |
| 100 to 500 | 1000 to 10000 | O=C(Oc1cc2c(Cl)cccc2[nH]c1=O)c1cc(CCc2ccc(Cl)cc2)c[nH]1 [Compound 18, 5-chloro-2-oxo-1,2-dihydroquinolin-3-yl 4-(4-chlorophenethyl)-1H-pyrrole-2-carboxylate] |
| 100 to 500 | 100 to 1000 | O=C(Oc1cc2c(Cl)cccc2[nH]c1=O)c1cc(CCc2ccccc2)n[nH]1 [Compound 27, 5-chloro-2-oxo-1,2-dihydroquinolin-3-yl 3-phenethyl-1H-pyrazole-5-carboxylate] |
| 1000 to 10000 | 1000 to 10000 | O=C(Oc1cc(CSc2ccc(Cl)c(Cl)c2)c[nH]c1=O)c1cc(CCc2ccccc2)c[nH]1 [Compound 50, 5-(((3,4-dichlorophenyl)thio)methyl)-2-oxo-1,2-dihydropyridin-3-yl 4-phenethyl-1H-pyrrole-2-carboxylate] |
| 1000 to 10000 | 10000 to 100000 | O=C(Oc1cc(CCc2cc(F)cc(F)c2)n[nH]c1=O)c1cc(CCc2ccc(Cl)cc2)c[nH]1 [Compound 56, 6-(3,5-difluorophenethyl)-3-oxo-2,3-dihydropyridazin-4-yl 4-(4-chlorophenethyl)-1H-pyrrole-2-carboxylate] |
| 100 to 500 | 10 to 100 | O=C(Oc1cc(Cc2cccc3ccccc23)n[nH]c1=O)c1cc(CCc2cccc(Cl)c2)n[nH]1 [Compound 67, 6-(naphthalen-1-ylmethyl)-3-oxo-2,3-dihydropyridazin-4-yl 3-(3-chlorophenethyl)-1H-pyrazole-5-carboxylate] |
| 100 to 500 | 10 to 100 | O=C(Oc1cc(Cc2cccc3ccccc23)n[nH]c1=O)c1cc(CCc2ccc(F)cc2)n[nH]1 [Compound 72, 6-(naphthalen-1-ylmethyl)-3-oxo-2,3-dihydropyridazin-4-yl 3-(4-fluorophenethyl)-1H-pyrazole-5-carboxylate] |
| 100 to 1000 | 10 to 100 | O=C(Oc1cc(Cc2cccc3ccccc23)n[nH]c1=O)c1cc(Cc2ccccc2)n[nH]1 [Compound 77, 6-(naphthalen-1-ylmethyl)-3-oxo-2,3-dihydropyridazin-4-yl 3-benzyl-1H-pyrazole-5-carboxylate] |

Second part, the molecule before the results:

| Compound | IC50 [1] [nM] | IC50 [2] [nM] |
| --- | --- | --- |
| O=C(Oc1cc(Cc2cccc3ccccc23)n[nH]c1=O)c1cc(CCc2ccccc2Cl)n[nH]1 | 100 to 500 | 10 to 100 |
| O=C(Oc1cc(CCc2cccc3ccccc23)n[nH]c1=O)c1cc(CCc2ccc(Cl)cc2)n[nH]1 | 100 to 500 | 10 to 100 |
| O=C(Oc1cc(CCc2cccc3ccccc23)n[nH]c1=O)c1cc(CCc2ccccc2)n[nH]1 | 100 to 500 | 10 to 100 |
| O=C(Oc1cc(Cc2ccc3ccccc3c2)n[nH]c1=O)c1cc(CCc2ccccc2)n[nH]1 | 100 to 500 | 10 to 100 |
| O=C(Oc1coc(CO)cc1=O)c1cc(CCc2ccc(Cl)cc2)c[nH]1 [Compound 5, 6-(hydroxymethyl)-4-oxo-4H-pyran-3-yl 4-(4-chlorophenethyl)-1H-pyrrole-2-carboxylate] | 10000 to 100000 | 10000 to 100000 |
| O=C(Oc1coc(CO)cc1=O)c1cc2occc2[nH]1 [Compound 9, 6-(hydroxymethyl)-4-oxo-4H-pyran-3-yl 4H-furo[3,2-b]pyrrole-5-carboxylate] | 1000 to 10000 | 10000 to 100000 |
| O=C(Oc1coc(CSc2ccc(Cl)cc2)cc1=O)c1cc(CCc2ccc(Cl)cc2)c[nH]1 [Compound 14, 6-(((4-chlorophenyl)thio)methyl)-4-oxo-4H-pyran-3-yl 4-(4-chlorophenethyl)-1H-pyrrole-2-carboxylate] | 1000 to 10000 | 10000 to 100000 |
| O=C(Oc1cc2c(Cl)cccc2[nH]c1=O)c1cc(CCc2ccccc2)c[nH]1 [Compound 23, 5-chloro-2-oxo-1,2-dihydroquinolin-3-yl 4-phenethyl-1H-pyrrole-2-carboxylate] | 100 to 1000 | 1000 to 10000 |
| O=C(Oc1cc2c(Cl)cccc2[nH]c1=O)c1cc(CCc2ccc(Cl)cc2)n[nH]1 [Compound 32, 5-chloro-2-oxo-1,2-dihydroquinolin-3-yl 3-(4-chlorophenethyl)-1H-pyrazole-5-carboxylate] | 100 to 1000 | 100 to 500 |
| O=C(Oc1cc(CSc2ccc(Cl)c(Cl)c2)c[nH]c1=O)c1cc(CCc2ccccc2)n[nH]1 [Compound 49, 5-(((3,4-dichlorophenyl)thio)methyl)-2-oxo-1,2-dihydropyridin-3-yl 3-phenethyl-1H-pyrazole-5-carboxylate] | 1000 to 10000 | 100 to 1000 |
| O=C(Oc1cc(Cc2cccc3ccccc23)n[nH]c1=O)c1cc(CCc2ccccc2)n[nH]1 [Compound 62, 6-(naphthalen-1-ylmethyl)-3-oxo-2,3-dihydropyridazin-4-yl 3-phenethyl-1H-pyrazole-5-carboxylate] | 100 to 1000 | 10 to 100 |
